According to patent EP2794556B1, “BIS-(ARYL/HETEROARYL)-METHYLENE COMPOUNDS, PHARMACEUTICAL COMPOSITIONS CONTAINING SAME AND THEIR USE FOR TREATING CANCER” (Gleason, James L., priority 2011, dated 2013):

Experiments:
BT-549 = assay: NCI 60 cell panel
SCC25 cells = assay: EdU cell growth assay
Protocol: EdU cell growth assay. Click-iT EdU Alexa Fluor high-throughput imaging (HCS) assay for cell proliferation. HCS assays were performed on AT84 mouse squamous carcinoma cell line (ATCC) following the manufacturer's instruction (Molecular Probes, Invitrogen). […] All samples were in triplicate.

MDA-MB-468 = assay: NCI 60 cell panel
M14 = assay: NCI 60 cell panel
SNB-19 = assay: NCI 60 cell panel
RXF 393 = assay: NCI 60 cell panel
SCC4 cells = assay: MTS cell proliferation assay; assay type: cell-based, human; conditions: vitamin D resistant SCC4 cells, Figures 7c, 8 and 9
Text: Dose-dependent effects of compounds on cell cycle progression was monitored using a CellTiter 96 Aqueous Non-Radioactive Cell Proliferation Assay Kit (Promega). The assay composed of solutions of a novel tetrazolium compound (MTS) and an electron coupling reagent (phenazine methosulfate; PMS). MTS is reduced by metabolically active cells into a soluble formazan product that absorbs at 490nm. The quantity of formazan product absorbing at 490nm is directly proportional to the number of living cells.

SK-MEL-2 = assay: NCI 60 cell panel
NCI-H322M = assay: NCI 60 cell panel
OVCAR-3 = assay: NCI 60 cell panel
KM12 = assay: NCI 60 cell panel
MDA-MB-435 = assay: NCI 60 cell panel
SF-268 = assay: NCI 60 cell panel
A498 = assay: NCI 60 cell panel
CAKI-1 = assay: NCI 60 cell panel
CCRF-CEM = assay: NCI 60 cell panel
MDA-MB-231/ATCC = assay: NCI 60 cell panel

Q: Which TGI (BT-549; Breast Cancer, BT-549) does the source give for `CCC(CC)(c1ccc(OCC(=O)NO)c(C)c1)c1ccc(OCC(O)C(C)(C)C)c(C)c1` (racemic) [JF-B01, N-Hydroxy-2-(4-(3-(4-(2-hydroxy-3,3-dimethylbutoxy)-3-methylphenyl)pentan-3-yl)-2-methylphenoxy)acetamide] here?
A: 7.74E-6

Q: And the GI50 (BT-549; Homo sapiens, BT-549)?
A: 2.03 µM

Q: What about the CC50 (BT-549; Homo sapiens, BT-549, read-out: LC50) of the same compound?
A: 28.5 µM

Q: And the “antiproliferative potency, fold less potent than 1,25D” value (SCC25 cells)?
A: 10 fold

Q: And the “EdU incorporation at higher concentrations” value (SCC25 cells; higher concentrations)?
A: completely abolished EdU incorporation

Q: And the TGI (MDA-MB-468; Breast Cancer, MDA-MB-468)?
A: 3.53E-6

Q: What about the GI50 (MDA-MB-468; Homo sapiens, MDA-MB-468) of the same compound?
A: 1.57 µM

Q: And the CC50 (MDA-MB-468; Homo sapiens, MDA-MB-468, read-out: LC50)?
A: 7.92 µM

Q: What about the GI50 (M14; Homo sapiens, M14) of the same compound?
A: 2.3 µM

Q: What about the CC50 (M14; Homo sapiens, M14, read-out: LC50) of the same compound?
A: 16.5 µM

Q: What about the TGI (M14; Melanoma, M14) of the same compound?
A: 5.33E-6

Q: What about the TGI (SNB-19; CNS Cancer, SNB-19) of the same compound?
A: 1.12E-5

Q: And the GI50 (SNB-19; Homo sapiens, SNB-19)?
A: 2.41 µM

Q: And the CC50 (SNB-19; Homo sapiens, SNB-19, read-out: LC50)?
A: 33.5 µM

Q: What about the GI50 (RXF 393; Homo sapiens, RXF 393) of the same compound?
A: 5.34 µM

Q: What about the CC50 (RXF 393; Homo sapiens, RXF 393, read-out: LC50) of the same compound?
A: 47.5 µM

Q: And the TGI (RXF 393; Renal Cancer, RXF 393)?
A: 1.91E-5

Q: And the antiproliferative potency (SCC4 cells)?
A: low micromolar potency

Q: What about the GI50 (SK-MEL-2; Homo sapiens, SK-MEL-2) of the same compound?
A: 1.9 µM

Q: And the CC50 (SK-MEL-2; Homo sapiens, SK-MEL-2, read-out: LC50)?
A: 30 µM

Q: What about the TGI (SK-MEL-2; Melanoma, SK-MEL-2) of the same compound?
A: 5.24E-6

Q: What about the GI50 (NCI-H322M; Homo sapiens) of the same compound?
A: 2.86 µM

Q: What about the CC50 (NCI-H322M; Homo sapiens, read-out: LC50) of the same compound?
A: 33 µM

Q: And the TGI (NCI-H322M; Non-Small Cell Lung Cancer)?
A: 1.08E-5

Q: What about the GI50 (OVCAR-3; Homo sapiens, OVCAR-3) of the same compound?
A: 1.73 µM

Q: What about the CC50 (OVCAR-3; Homo sapiens, OVCAR-3, read-out: LC50) of the same compound?
A: 21.6 µM

Q: What about the TGI (OVCAR-3; Ovarian Cancer, OVCAR-3) of the same compound?
A: 5.59E-6

Q: And the TGI (KM12; Colon Cancer, KM12)?
A: 8.17E-6

Q: What about the GI50 (KM12; Homo sapiens, KM12) of the same compound?
A: 2.15 µM

Q: And the CC50 (KM12; Homo sapiens, KM12, read-out: LC50)?
A: 28.8 µM

Q: And the GI50 (MDA-MB-435; Homo sapiens, MDA-MB-435)?
A: 2.08 µM

Q: What about the CC50 (MDA-MB-435; Homo sapiens, MDA-MB-435, read-out: LC50) of the same compound?
A: 16.7 µM

Q: What about the TGI (MDA-MB-435; Melanoma, MDA-MB-435) of the same compound?
A: 5.20E-6

Q: What about the TGI (SF-268; CNS Cancer, SF-268) of the same compound?
A: 1.06E-5

Q: What about the GI50 (SF-268; Homo sapiens, SF-268) of the same compound?
A: 2.26 µM

Q: And the CC50 (SF-268; Homo sapiens, SF-268, read-out: LC50)?
A: 34.6 µM

Q: And the GI50 (A498; Homo sapiens, A498)?
A: 4.56 µM

Q: What about the CC50 (A498; Homo sapiens, A498, read-out: LC50) of the same compound?
A: 45.6 µM

Q: What about the TGI (A498; Renal Cancer, A498) of the same compound?
A: 2.08E-5

Q: And the GI50 (CAKI-1; Homo sapiens, CAKI-1)?
A: 4.98 µM

Q: What about the CC50 (CAKI-1; Homo sapiens, CAKI-1, read-out: LC50) of the same compound?
A: 41.3 µM

Q: And the TGI (CAKI-1; Renal Cancer, CAKI-1)?
A: 1.71E-5

Q: And the GI50 (CCRF-CEM; Homo sapiens)?
A: 0.576 µM

Q: And the CC50 (CCRF-CEM; Homo sapiens, read-out: LC50)?
A: 42.2 µM

Q: And the TGI (CCRF-CEM; Leukemia)?
A: 4.80E-6

Q: What about the TGI (MDA-MB-231/ATCC; Breast Cancer, MDA-MB-231/ATCC) of the same compound?
A: 8.45E-6

Q: And the GI50 (MDA-MB-231/ATCC; Homo sapiens, MDA-MB-231)?
A: 2.18 µM

Q: What about the CC50 (MDA-MB-231/ATCC; Homo sapiens, MDA-MB-231, read-out: LC50) of the same compound?
A: 31.6 µM
